Drawing on patent US9029409B2, “Isoxazolines as therapeutic agents” (AbbVie Inc., priority 2011, dated 2015), this text covers IC50 for 61 compounds.

The assay addresses T1, recombinant human MMP13 catalytic domain (CD) (Homo sapiens, UniProt P45452).
T1 construct: catalytic domain (CD) construct encompassing residues 20-274 (SWISS-PROT P45452); made in house
Description: MMP-13 catalytic domain FRET enzyme assay. It is filed as biochemical. The following applies: recombinant human MMP-13 catalytic domain. As to the method:
A recombinant human MMP13 catalytic domain (CD) construct encompassing residues 20-274 (SWISS-PROT P45452) was generated by synthetic gene methods and bacterial expression. MMP-13 activity assays were performed using the recombinant human MMP-13 CD at a 0.4 nM concentration and the fluorogenic substrate (QXL-520)-K-P-L-A˜Nva-Dap(5-FAM)-A-R-NH2 (Anaspec cat #60554-01, San Jose, Calif.) at a 0.25 μM concentration in assay buffer containing […], pH 7.5, 10 mM CaCl2, 150 mM NaCl, 0.05% Brij 35. The assay is based on the cleavage of this substrate by MMP-13, resulting in decrease of FRET between the donor-acceptor pair and subsequent fluorescence enhancement. The assays were carried out in 384-well plates (Greiner cat #781076, Germany) for 60 min at RT. After the incubation period, the reaction was quenched by the addition of 5 μL of 500 mM EDTA (100 mM final concentration) (Rankem, Cat #E0120, India) mixed well and the rate of substrate hydrolysis was determined by monitoring change in fluorescence at excitation and emission wavelengths of 485 nm and 535 nm respectively. Fluorescence was measured on a Victor V5 plate reader (Perkin Elmer, Turku, Finland). The test compounds used for assessing the potency of inhibition of MMP-13 activity were dissolved in DMSO (final DMSO concentration in the assay was 5%). Selected compounds were also screened against full length MMP13 (R&D Systems (Cat. No. 511-MM-010), Minneapolis, Minn.) at 2 nM concentration using the same fluorogenic substrate mentioned above. The enzyme was activated using 1 m Mp-aminophenylmercuric acetate—APMA (Cat #A-9563, Sigma, Germany).
Data analysis: The percent inhibition of the enzyme activity in presence of test compounds were calculated using the equation, percent (%) Inhibition=100−[(Fi/Fc)*100] where Fc is the fluorescence corresponding to initial enzyme activity and Fi is the fluorescence corresponding to the enzyme activity in presence of inhibitor. The IC50 values were calculated by fitting the dose-response data to a sigmoidal curve fitting equation using Graph Pad prism software (Version 5, La Jolla, Calif.).
MMP13 Catalytic Domain (CD) Potency of the Described Examples Determined Using Time Resolved Fluorescence Resonance Energy Transfer (FRET) Enzyme Assays: […]

Bounds are passed on as bounds.

What is called IC50 is the concentration needed to halve the response being measured. Regarding `COc1ccc(CNC(=O)c2cc(C3=NOC(C)(c4ccc(OCCO)cc4)C3)nc(C)n2)cc1` (stereo not shown), the IC50 was 100 to 1000 nM.

Regarding `COc1ccc(CNC(=O)c2cc(C3=NOC(c4ccc(CO)cc4)C3)nc(C)n2)cc1` (stereo not shown), the IC50 was 10 to 100 nM.

`COc1ccc(CNC(=O)c2cc(C3=NOC(c4ccc(C(N)=O)cc4)C3)nc(C)n2)cc1` (stereo not shown): the IC50 was less than 10 nM.

Take `COc1cc(CNC(=O)c2cc(C3=NOC(C4CCCCC4)C3)nc(C)n2)ccc1F` (stereo not shown): the IC50 is less than 10 nM.

`COc1ccc(CNC(=O)c2cc(C3=NOC(C4CCN(C(C)=O)CC4)C3)nc(C)n2)cc1` (stereo not shown): the IC50 lay within 100 to 1000 nM.

With `COc1cc(CNC(=O)c2cc(C3=NOC(c4ccccn4)C3)nc(C)n2)ccc1F` (stereo not shown), the IC50 was in the range of 10 to 100 nM.

For the compound `COc1cc(CNC(=O)c2cc(C3=NOC(C4CCC(O)CC4)C3)nc(C)n2)ccc1F` (stereo not shown), the IC50 was less than 10 nM.

Take `Cc1nc(C(=O)NCc2ccc(F)cc2)cc(C2=NO[C@H]([C@H]3CO[C@@H](CO)CO3)C2)n1`: the IC50 is 10 to 100 nM.

Regarding `COc1cc(CNC(=O)c2cc(C3=NO[C@H]([C@H]4CO[C@H](CNC(C)=O)CO4)C3)nc(C)n2)ccc1F`, the IC50 was less than 10 nM.

Regarding `COc1cc(CNC(=O)c2cc(C3=NO[C@H]([C@H]4CO[C@H](CNS(C)(=O)=O)CO4)C3)nc(C)n2)ccc1F`, the IC50 is less than 10 nM.

For `COc1cc(CNC(=O)c2cc(C3=NOC(C4CCN(C(=O)Nc5nccs5)CC4)C3)nc(C)n2)ccc1F` (stereo not shown), the IC50 was in the range of 10 to 100 nM.

On to `COc1cc(CNC(=O)c2cc(C3=NOC([C@H]4CC[C@H](CNC(C)=O)CC4)C3)nc(C)n2)ccc1F` (stereo partly shown), for which the IC50 was less than 10 nM.

Turning to `COc1cc(CNC(=O)c2cc(C3=NOC(c4ccc(-c5cnco5)cn4)C3)nc(C)n2)ccc1F` (stereo not shown), the IC50 is less than 10 nM.

Consider `COc1cc(CNC(=O)c2cc(C3=NOC(c4ccc(S(C)(=O)=O)nn4)C3)nc(C)n2)ccc1F` (stereo not shown), for which the IC50 fell in the range of 10 to 100 nM.

As for `COc1cc(CNC(=O)c2cc(C3=NOC(c4ccc(-c5nc(C)no5)nc4)C3)nc(C)n2)ccc1F` (stereo not shown), the IC50 was less than 10 nM.

Turning to `COc1cc(CNC(=O)c2cc(C3=NOC(c4ccc(C(C)=O)nc4)C3)nc(C)n2)ccc1F` (stereo not shown), the IC50 was less than 10 nM.

With `COc1cc(CNC(=O)c2cc(C3=NOC(c4ccc(C(N)=O)nn4)C3)nc(C)n2)ccc1F` (stereo not shown), the IC50 is 10 to 100 nM.

With `COc1cc(CNC(=O)c2cc(C3=NOC(c4ccc(C#N)nn4)C3)nc(C)n2)ccc1F` (stereo not shown), the IC50 is less than 10 nM.

As to `COc1cc(CNC(=O)c2cc(C3=NOC([C@H]4CC[C@H](CNC(=O)CO)CC4)C3)nc(C)n2)ccc1F` (stereo partly shown), the IC50 is less than 10 nM.

For `COc1cc(CNC(=O)c2cc(C3=NOC(c4cc(-c5nc(C)no5)nn4C)C3)nc(C)n2)ccc1F` (stereo not shown), the IC50 is 10 to 100 nM.

In the case of `COc1cc(CNC(=O)c2cc(C3=NOC(c4cc(C(N)=O)nn4C)C3)nc(C)n2)ccc1F` (stereo not shown), the IC50 is 100 to 1000 nM.

On to `COc1cc(CNC(=O)c2cc(C3=NOC([C@H]4CC[C@H](CNC(=O)CC#N)CC4)C3)nc(C)n2)ccc1F` (stereo partly shown), for which the IC50 was less than 10 nM.

Turning to `CNC(=O)c1ccc(C2CC(c3cc(C(=O)NCc4ccc(F)c(OC)c4)nc(C)n3)=NO2)nn1` (stereo not shown), the IC50 was 10 to 100 nM.

With `COc1cc(CNC(=O)c2cc(C3=NOC(c4ccc(-c5nc(C)no5)nn4)C3)nc(C)n2)ccc1F` (stereo not shown), the IC50 is less than 10 nM.

As for `COc1cc(CNC(=O)c2cc(C3=NO[C@H]([C@H]4CO[C@H](CNC(=O)CO)CO4)C3)nc(C)n2)ccc1F`, the IC50 was less than 10 nM.

Take `COc1cc(CNC(=O)c2cc(C3=NOC(c4ccc(-c5cnco5)nc4)C3)nc(C)n2)ccc1F` (stereo not shown): the IC50 is less than 10 nM.

As to `COc1cc(CNC(=O)c2cc(C3=NOC(c4ccc(CO)nc4)C3)nc(C)n2)ccc1F` (stereo not shown), the IC50 lay within 10 to 100 nM.

Turning to `COc1cc(CNC(=O)c2cc(C3=NOC([C@H]4CC[C@H](NC(=O)NCCO)CC4)C3)nc(C)n2)ccc1F` (stereo partly shown), the IC50 is less than 10 nM.

As to `COc1cc(CNC(=O)c2cc(C3=NOC([C@H]4CC[C@H](NC(=O)N(C)CCO)CC4)C3)nc(C)n2)ccc1F` (stereo partly shown), the IC50 was less than 10 nM.

`COc1cc(CNC(=O)c2cc(C3=NOC(c4cnc(S(C)(=O)=O)cn4)C3)nc(C)n2)ccc1F` (stereo not shown): the IC50 was 10 to 100 nM.

As for `COc1cc(CNC(=O)c2cc(C3=NOC(c4ccc(C#N)nc4)C3)nc(C)n2)ccc1F` (stereo not shown), the IC50 was less than 10 nM.

In the case of `COc1cc(CNC(=O)c2cc(C3=NOC(C4CCN(C(=O)CCN(C)C)CC4)C3)nc(C)n2)ccc1F` (stereo not shown), the IC50 fell in the range of 10 to 100 nM.

Take `Cc1nc(C(=O)NCc2ccc(F)c(C)c2)cc(C2=NO[C@H]([C@H]3CO[C@H](CO)CO3)C2)n1`: the IC50 lay within 100 to 1000 nM.

As for `COc1cc(CNC(=O)c2cc(C3=NO[C@H]([C@@H]4CO[C@@H](C(=O)O)CO4)C3)nc(C)n2)ccc1F`, the IC50 is 10 to 100 nM.

For the compound `CNC(=O)N[C@H]1CC[C@H](C2CC(c3cc(C(=O)NCc4ccc(F)c(OC)c4)nc(C)n3)=NO2)CC1` (stereo partly shown), the IC50 was less than 10 nM.

With `COc1cc(CNC(=O)c2cc(C3=NOC([C@H]4CC[C@H](NC(=O)N(C)C)CC4)C3)nc(C)n2)ccc1F` (stereo partly shown), the IC50 was less than 10 nM.

For `Cc1nc(C(=O)NCc2ccc(Cl)c(Cl)c2)cc(C2=NO[C@H]([C@H]3CO[C@H](CO)CO3)C2)n1`, the IC50 was greater than 1000 nM.

In the case of `COc1cc(CNC(=O)c2cc(C3=NOC(c4cnn(CCO)c4)C3)nc(C)n2)ccc1F` (stereo not shown), the IC50 is greater than 1000 nM.

As to `COc1cc(CNC(=O)c2cc(C3=NO[C@H]([C@H]4CO[C@H](CNC(=O)CC#N)CO4)C3)nc(C)n2)ccc1F`, the IC50 is less than 10 nM.

In the case of `COc1cc(CNC(=O)c2cc(C3=NO[C@H]([C@H]4CO[C@H](CNC(=O)C(C)(C)O)CO4)C3)nc(C)n2)ccc1F`, the IC50 lay in the range of 10 to 100 nM.

As for `CNC(=O)NC[C@@H]1CO[C@@H]([C@@H]2CC(c3cc(C(=O)NCc4ccc(F)c(OC)c4)nc(C)n3)=NO2)CO1`, the IC50 fell in the range of 10 to 100 nM.

Take `COc1cc(CNC(=O)c2cc(C3=NO[C@H]([C@H]4CO[C@H](CNC(=O)N(C)C)CO4)C3)nc(C)n2)ccc1F`: the IC50 is 10 to 100 nM.

Turning to `COc1cc(CNC(=O)c2cc(C3=NOC(C(=O)N4CCCC4)C3)nc(C)n2)ccc1F` (stereo not shown), the IC50 was greater than 1000 nM.

For the compound `COc1cc(CNC(=O)c2cc(C3=NOC([C@H]4CC[C@H](NC(=O)CN(C)C)CC4)C3)nc(C)n2)ccc1F` (stereo partly shown), the IC50 lay within 10 to 100 nM.

On to `COc1cc(CNC(=O)c2cc(C3=NOC(c4cnc5[nH]ncc5c4)C3)nc(C)n2)ccc1F` (stereo not shown), for which the IC50 was in the range of 10 to 100 nM.

In the case of `COc1cc(CNC(=O)c2cc(C3=NOC(c4cnc5c(cnn5C)c4)C3)nc(C)n2)ccc1F` (stereo not shown), the IC50 was in the range of 10 to 100 nM.

In the case of `COc1cc(CNC(=O)c2cc(C3=NOC(C(=O)NCCO)C3)nc(C)n2)ccc1F` (stereo not shown), the IC50 fell in the range of 100 to 1000 nM.

`COc1cc(CNC(=O)c2cc(C3=NOC(C(N)=O)C3)nc(C)n2)ccc1F` (stereo not shown): the IC50 was greater than 1000 nM.

Regarding `COc1cc(CNC(=O)c2cc(C3=NO[C@H]([C@H]4CO[C@H](C(C)(C)O)CO4)C3)nc(C)n2)ccc1F`, the IC50 was in the range of 10 to 100 nM.

`CNC(=O)[C@@H]1CO[C@@H]([C@@H]2CC(c3cc(C(=O)NCc4ccc(F)c(OC)c4)nc(C)n3)=NO2)CO1`: the IC50 is less than 10 nM.

As to `CNC(=O)[C@H]1CC[C@H](C2CC(c3cc(C(=O)NCc4ccc(F)c(OC)c4)nc(C)n3)=NO2)CC1` (stereo partly shown), the IC50 was less than 10 nM.

On to `COc1cc(CNC(=O)c2cc(C3=NOC([C@H]4CC[C@H](C(N)=O)CC4)C3)nc(C)n2)ccc1F` (stereo partly shown), for which the IC50 is less than 10 nM.

Turning to `COc1cc(CNC(=O)c2cc(C3=NOC([C@H]4CC[C@H](NC(=O)C(C)(C)O)CC4)C3)nc(C)n2)ccc1F` (stereo partly shown), the IC50 was in the range of 10 to 100 nM.

With `COc1cc(CNC(=O)c2cc(C3=NOC([C@H]4CC[C@H](NC(=O)[C@H](C)O)CC4)C3)nc(C)n2)ccc1F` (stereo partly shown), the IC50 is less than 10 nM.

For the compound `COc1cc(CNC(=O)c2cc(C3=NOC(CN4CCC(CO)C4)C3)nc(C)n2)ccc1F` (stereo not shown), the half-inhibitory concentration (IC50) is greater than 1000 nM.

`COc1cc(CNC(=O)c2cc(C3=NOC(CN4CCN(C(C)=O)CC4)C3)nc(C)n2)ccc1F` (stereo not shown): the IC50 is greater than 1000 nM.

For the compound `COc1cc(CNC(=O)c2cc(C3=NOC(c4ccc(N(C)C)nn4)C3)nc(C)n2)ccc1F` (stereo not shown), the IC50 is greater than 1000 nM.

For `COc1cc(CNC(=O)c2cc(C3=NOC(c4ccc(N5CCCC5)nn4)C3)nc(C)n2)ccc1F` (stereo not shown), the half-maximal inhibitory concentration (IC50) was greater than 1000 nM.

As for `COc1cc(CNC(=O)c2cc(C3=NOC([C@H]4CC[C@H](NC(=O)NC(CO)CO)CC4)C3)nc(C)n2)ccc1F` (stereo partly shown), the IC50 was in the range of 10 to 100 nM.

For `COc1cc(CNC(=O)c2cc(C3=NOC([C@H]4CC[C@H](C(=O)NCCO)CC4)C3)nc(C)n2)ccc1F` (stereo partly shown), the IC50 is less than 10 nM.

`COc1cc(CNC(=O)c2cc(C3=NOC([C@H]4CC[C@H](NC(=O)N(C)CC(O)CO)CC4)C3)nc(C)n2)ccc1F` (stereo partly shown): the IC50 was less than 10 nM.
